Experiment: in vivo
Settings: Sprague-Dawley, rat, po, 4 mg/kg

SMILES	bioavailability [%]
CC(C)(C#N)[C@H]1OC2(CCN(C(=O)[C@@H]3CN(C4CCOCC4)C[C@H]3c3ccc(F)cc3F)CC2)c2cc(F)c(Cl)cc21	23
CC(=O)NC(C)(C)[C@H]1OC2(CCN(C(=O)[C@@H]3CN(C4CCOCC4)C[C@H]3c3ccc(F)cc3F)CC2)c2cc(Cl)c(C)cc21	26
